Results: patent US20150284331A1 (priority 2012, published 2015)

Assays:
butyrylcholinesterase = biological target: T1, butyrylcholinesterase (Rattus norvegicus, UniProt Q9JKC1); experiment: inhibition of butyrylcholinesterase (rat serum); format: biochemical; settings: rat serum enzyme; final concentration 4×10−5 mol/L
T1 construct: Butyrylcholinesterase: rat serum; from tissue; host or cells: rat serum
Procedure: (§1) Sample processing: All samples were formulated as 10-2 mol/L solution by using 100% DMSO. 10-2 mol/L solution was used in microdetermination. 1 μL was taken to use in single tube experiment.
(§2) Solvent control: 0.4% DMSO was used in microdetermination. The inhibition ratio of the sample was obtained wherein the effect of solvent was deducted.
Butyrylcholinesterase: rat serum

acetylcholinesterase = biological target: T2, acetylcholinesterase (Rattus norvegicus, UniProt P37136); experiment: biochemical; format: biochemical; settings: rat cortex enzyme; for acetylcholinesterase inhibitory activity inhibition ratio (%): final concentration 4×10−5 mol/L; for IC50: read-out: acetylcholinesterase inhibitory activity IC50 (nmol)
T2 construct: Acetylcholinesterase: rat cortex; from tissue; host or cells: rat cortex
T2 sequence (P37136 32-614): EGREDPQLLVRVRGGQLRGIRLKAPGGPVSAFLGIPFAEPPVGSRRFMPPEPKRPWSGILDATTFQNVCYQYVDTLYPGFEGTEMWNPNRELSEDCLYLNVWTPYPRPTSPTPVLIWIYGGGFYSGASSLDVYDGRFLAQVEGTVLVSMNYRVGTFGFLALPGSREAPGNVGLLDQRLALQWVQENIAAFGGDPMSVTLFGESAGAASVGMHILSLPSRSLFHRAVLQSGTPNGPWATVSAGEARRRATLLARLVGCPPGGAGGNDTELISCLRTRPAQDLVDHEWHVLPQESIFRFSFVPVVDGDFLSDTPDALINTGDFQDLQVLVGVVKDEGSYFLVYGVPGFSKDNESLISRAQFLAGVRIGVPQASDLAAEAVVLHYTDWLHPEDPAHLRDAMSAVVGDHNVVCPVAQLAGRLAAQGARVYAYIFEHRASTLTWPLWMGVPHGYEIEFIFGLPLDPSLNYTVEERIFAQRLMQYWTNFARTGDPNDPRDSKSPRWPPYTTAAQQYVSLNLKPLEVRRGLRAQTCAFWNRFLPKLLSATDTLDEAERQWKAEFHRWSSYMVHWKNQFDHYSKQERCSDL
Procedure: as §1, §2
Acetylcholinesterase: rat cortex

T1 sequence (Q9JKC1 24-597): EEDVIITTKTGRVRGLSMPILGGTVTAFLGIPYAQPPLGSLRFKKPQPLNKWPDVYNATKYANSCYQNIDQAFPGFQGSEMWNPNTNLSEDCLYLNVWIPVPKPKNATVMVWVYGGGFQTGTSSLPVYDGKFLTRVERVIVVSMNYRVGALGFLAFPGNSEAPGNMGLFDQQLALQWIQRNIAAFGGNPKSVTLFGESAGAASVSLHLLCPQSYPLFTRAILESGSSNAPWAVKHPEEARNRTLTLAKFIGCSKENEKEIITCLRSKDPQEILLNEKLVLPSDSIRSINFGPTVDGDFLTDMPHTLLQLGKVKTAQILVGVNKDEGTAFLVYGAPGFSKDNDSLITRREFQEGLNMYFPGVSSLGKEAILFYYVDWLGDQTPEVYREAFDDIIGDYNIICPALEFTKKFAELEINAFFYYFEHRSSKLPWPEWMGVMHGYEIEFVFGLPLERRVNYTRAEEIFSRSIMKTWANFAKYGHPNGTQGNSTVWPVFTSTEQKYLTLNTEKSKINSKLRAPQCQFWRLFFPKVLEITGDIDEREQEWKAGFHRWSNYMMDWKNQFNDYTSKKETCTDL

Compound	butyrylcholinesterase inhibitory activity inhibition ratio (%) (butyrylcholinesterase)	acetylcholinesterase inhibitory activity inhibition ratio (%) (acetylcholinesterase)	IC50 (acetylcholinesterase) [µM]
COc1cc2c(cc1OC)C(=O)C(CC1(F)CCN(Cc3cccc(C#N)c3)CC1)C2 (stereo not shown) [DC13, 3-((4-((5,6-dimethoxy-1-oxo-2,3-dihydro-1H-inden-2-yl)methyl)-4-fluoropiperidin-1-yl)methyl)benzonitrile]	29.25	97.19	
COc1cc2c(cc1OC)C(=O)C(CC1(F)CCN(C(=O)c3ccccc3)CC1)C2 (stereo not shown) [DC23, 2-((1-benzoyl-4-fluoropiperidin-4-yl)methyl)-5,6-dimethoxy-2,3-dihydro-1H-inden-1-one]	0.00	57.09	
COc1cc2c(cc1OC)C(=O)C(CC1(F)CCN(Cc3ccccc3F)C(C)C1)C2 (stereo not shown) [DC109, 2-((4-fluoro-1-(2-fluorobenzyl)-2-methylpiperidin-4-yl)methyl)-5,6-dimethoxy-2,3-dihydro-1H-inden-1-one]	76.62	88.44	0.0109
COc1cc2c(cc1OC)C(=O)C(CC1(F)CCN(Cc3cccc(C)c3)CC1)C2 (stereo not shown) [DC29, 2-((4-fluoro-1-(3-methylbenzyl)piperidin-4-yl)methyl)-5,6-dimethoxy-2,3-dihydro-1H-inden-1-one]	64.92	97.78	
COc1cc2c(cc1OC)C(=O)C(CC1(F)CCN(Cc3ccc(Br)cc3F)CC1)C2 (stereo not shown) [DC15, 2-((1-(4-bromo-2-fluorobenzyl)-4-fluoropiperidin-4-yl)methyl)-5,6-dimethoxy-2,3-dihydro-1H-inden-1-one]	0.31	72.65	7.04
COc1cc2c(cc1OC)C(=O)C(CC1(F)CCN(Cc3cc(F)cc(F)c3F)CC1)C2 (stereo not shown) [DC35, 2-((4-fluoro-1-(2,3,5-trifluorobenzyl)piperidin-4-yl)methyl)-5,6-dimethoxy-2,3-dihydro-1H-inden-1-one]	10.08	94.39	
COc1cc2c(cc1OC)C(=O)C(CC1(F)CC3CCC(C1)N3Cc1ccccc1[N+](=O)[O-])C2 (stereo not shown) [DC52, 2-((3-fluoro-8-(2-nitrobenzyl)-8-azabicyclo[3.2.1]octan-3-yl)methyl)-5,6-dimethoxy-2,3-dihydro-1H-inden-1-one]	0.73	93.80	
COc1cc2c(cc1OC)C(=O)C(CC1(F)CC3CCC(C1)N3Cc1ccc(F)cc1)C2 (stereo not shown) [DC45, 2-((3-fluoro-8-(4-fluorobenzyl)-8-azabicyclo[3.2.1]octan-3-yl)methyl)-5,6-dimethoxy-2,3-dihydro-1H-inden-1-one]	82.56	97.19	
CCOc1cc2c(cc1OCC)C(=O)C(CC1(F)CCN(Cc3ccccc3F)CC1)C2 (stereo not shown) [DC77, 5,6-diethoxy-2-((4-fluoro-1-(2-fluorobenzyl)piperidin-4-yl)methyl)-2,3-dihydro-1H-inden-1-one]	72.0	97.09	0.0009
COc1cc2c(cc1OC)C(=O)C(CC1(F)CCN(Cc3ccc(F)cc3F)CC1)C2 (stereo not shown) [DC10, 2-((1-(2,4-difluorobenzyl)-4-fluoropiperidin-4-yl)methyl)-5,6-dimethoxy-2,3-dihydro-1H-inden-1-one]	83.11	97.34	
COc1cc2c(cc1OC)C(=O)C(CC1(F)CC3CCC(C1)N3Cc1ccccc1F)C2 (stereo not shown) [DC60, 2-((3-fluoro-8-(2-fluorobenzyl)-8-azabicyclo[3.2.1]octan-3-yl)methyl)-5,6-dimethoxy-2,3-dihydro-1H-inden-1-one]	64.31	95.13	
